# Data from PMC7956819, “Peptides from the Intestinal Tract of Breast Milk-Fed Infants Have Antimicrobial and Bifidogenic Activity” (International Journal of Molecular Sciences, 2021).
# Entries after “also recorded” stand apart in the source; their conditions may differ. Peptide text beside a SMILES is read from it.
# Experiments:
# [1] = tested on: Escherichia coli BL21 (DE3); assay type: cell-based; settings: BL21, 18 h
# Method: (§1) The bioactivity of the intestinal peptide extracts was determined via the microdilution method. Antimicrobial activity was screened with E. coli and S. aureus as representatives of common infant pathogens responsible for infectious disease, and growth-promoting activity was screened with B. infantis, one of the ideal colonizers of the infant gut. For the antimicrobial assays, colonies of bacteria were selected and inoculated in 2 mL of MHB and incubated at 37 °C for 24 h. The inoculum was diluted to 2 × 10^5 CFU/mL with MHB. For the growth-promoting assays, 100 µL of stock bacteria were inoculated in 10 mL of reinforced clostridial broth supplemented with 0.1% ascorbic acid and incubated under anaerobic conditions (BD BBL™ GasPak™) at 37 °C for 24 h. Optical density was measured at 600 nm, and the inoculum was diluted to an optical density of 0.05 with reinforced clostridial broth.
# (§2) The intestinal peptide extracts were serially diluted with PBS to concentrations of 1×, 1/2×, 1/4×, 1/8×, 1/16×, 1/32×, 1/64×, and 1/128×. In a 96-well plate, 50 µL of each dilution was incubated with 50 µL of inoculum in duplicate, along with a negative control of 50 µL of inoculum with 50 µL of pure PBS and a sterility test of 50 µL of peptide with 50 µL of broth. Growth was determined by optical density readings at 600 nm (OD600) taken at 0 h (T0) and 18 h (T18). The following equation was used to determine percent inhibition or promotion of bacterial growth:
# (§3) Candidate peptides were synthesized and dissolved in sterile nanopure water. Antimicrobial and growth-promoting assays were carried out as described above with serial dilutions ranging from […] to 15.6 μg/mL. Minimum inhibitory concentration (MIC) was determined by the concentration at which all visible growth was inhibited.
# [2] = tested on: Bifidobacterium longum spp. infantis ATCC 15697; assay type: cell-based; settings: ATCC 15697, 18 h
# Method: as §1, §2, §3
# [3] = tested on: Staphylococcus aureus ATCC 12600; assay type: cell-based; settings: ATCC 12600, 18 h
# Method: as §1, §2, §3
# [4] = function listed in the MBPDB for the identical sequence; not tested here; cited from earlier work
# Text: page 3: Ta ble S1. List of known bioactive peptides in the infant intestinal samples.
molecule,measurement,setting,value
CC[C@H](C)[C@H](NC(=O)[C@@H](NC(=O)[C@@H]1CCCN1C(=O)[C@H](CC(C)C)NC(=O)[C@H](C)NC(=O)[C@H](CO)NC(=O)[C@@H](NC(=O)[C@@H](N)CCSC)[C@@H](C)O)[C@@H](C)CC)C(=O)N[C@@H](CCC(N)=O)C(=O)N[C@@H](CCCCN)C(=O)O [Peptide 10] (H-MTSALPIIQK-OH),E. coli MIC,[1],>3000 µg/mL
same,B. infantis MIC,[2],>3000 µg/mL
same,S. aureus MIC,[3],>3000 µg/mL
CC[C@H](C)[C@H](NC(=O)[C@@H]1CCCN1C(=O)[C@H](CCC(N)=O)NC(=O)[C@@H]1CCCN1C(=O)[C@@H](NC(=O)[C@H](CCC(N)=O)NC(=O)[C@H](CCC(N)=O)NC(=O)[C@H](CCSC)NC(=O)[C@H](CC(C)C)NC(=O)[C@@H]1CCCN1C(=O)[C@H](CCC(N)=O)NC(=O)[C@H](CC(C)C)NC(=O)[C@H](CC(C)C)NC(=O)[C@@H]1CCCN1C(=O)[C@H](CC(C)C)NC(=O)[C@@H]1CCCN1C(=O)[C@H](CC(C)C)NC(=O)[C@@H](N)Cc1c[nH]cn1)C(C)C)C(=O)O [Peptide 1] (H-HLPLPLLQPLMQQVPQPI-OH),E. coli MIC,[1],>3000 µg/mL
same,B. infantis MIC,[2],>3000 µg/mL
same,S. aureus MIC,[3],>3000 µg/mL
CC[C@H](C)[C@H](NC(=O)[C@H](CCC(N)=O)NC(=O)[C@H](C)NC(=O)[C@H](Cc1c[nH]cn1)NC(=O)[C@@H]1CCCN1C(=O)[C@H](CCCNC(=N)N)NC(=O)[C@@H](NC(=O)[C@@H](NC(=O)[C@H](C)NC(=O)[C@@H]1CCCN1C(=O)[C@H](CC(N)=O)NC(=O)[C@H](C)NC(=O)[C@@H](N)Cc1ccc(O)cc1)C(C)C)C(C)C)C(=O)N1CCC[C@H]1C(=O)N[C@@H](CCC(N)=O)C(=O)N[C@@H](CCCNC(=N)N)C(=O)O [Peptide 6] (H-YANPAVVRPHAQIPQR-OH; N-terminus and C-terminus assumed),E. coli MIC,[1],>3000 µg/mL
same,B. infantis MIC,[2],>3000 µg/mL
same,S. aureus MIC,[3],>3000 µg/mL
CC(C)C[C@H](NC(=O)[C@H](CC(=O)O)NC(=O)[C@H](CCCCN)NC(=O)[C@@H](N)Cc1ccccc1)C(=O)NCC(=O)N[C@@H](CCC(=O)O)C(=O)N[C@@H](CCC(=O)O)C(=O)N[C@@H](CC(N)=O)C(=O)N[C@@H](Cc1ccccc1)C(=O)N[C@@H](CCCCN)C(=O)O [Peptide 11] (H-FKDLGEENFK-OH),E. coli MIC,[1],3000 µg/mL
same,B. infantis MIC,[2],>3000 µg/mL
same,S. aureus MIC,[3],3000 µg/mL
CC[C@H](C)[C@H](NC(=O)[C@@H]1CCCN1C(=O)[C@@H](N)CCC(=O)O)C(=O)N1CCC[C@H]1C(=O)N[C@@H](CC(C)C)C(=O)N[C@@H](CCC(=O)O)C(=O)N[C@@H](CO)C(=O)N[C@@H](CCCNC(=N)N)C(=O)N[C@@H](CCC(=O)O)C(=O)N[C@@H](CCC(=O)O)C(=O)O [Peptide 5] (H-EPIPLESREE-OH),E. coli MIC,[1],2500 µg/mL
same,B. infantis MIC,[2],>3000 µg/mL
same,S. aureus MIC,[3],2500 µg/mL
FALPQYLK,Function (known bioactive peptides in the infant intestinal samples),[4],ACE-inhibitory; also recorded: Antioxidant
YQEPVLGPVR,Function (known bioactive peptides in the infant intestinal samples),[4],ACE-inhibitory; also recorded: Immunomodulatory
IYPSFQPQPLIYP,Function (known bioactive peptides in the infant intestinal samples),[4],ACE-inhibitory
SPTIPFFDPQIPK,Function (known bioactive peptides in the infant intestinal samples),[4],Cell-proliferative
RETIESLSSSEESITEYK,Function (known bioactive peptides in the infant intestinal samples),[4],Cell-proliferative
FPEVFGK,Function (known bioactive peptides in the infant intestinal samples),[4],ACE-inhib itory
LTDLENLHLP,Function (known bioactive peptides in the infant intestinal samples),[4],ACE-inhibitory
ALKALPMHIR,Function (known bioactive peptides in the infant intestinal samples),[4],Cell-proliferative
LKPTPEGDLE,Function (known bioactive peptides in the infant intestinal samples),[4],DPP-IV-inhibitory
YLGYLEQLLR,Function (known bioactive peptides in the infant intestinal samples),[4],Anxiolytic
LLYQEPVLGPVRGPFPIIV,Function (known bioactive peptides in the infant intestinal samples),[4],ACE-inhibitory
VKEAMAPK,Function (known bioactive peptides in the infant intestinal samples),[4],Antimicrobial; also recorded: Antioxidant
ENLHLPLP,Function (known bioactive peptides in the infant intestinal samples),[4],ACE-inhibitory
TPEVDDEALEK,Function (known bioactive peptides in the infant intestinal samples),[4],Antimicrobial; also recorded: DPP-IV-inhibitory
CC[C@H](C)[C@H](NC(=O)[C@H](CCC(N)=O)NC(=O)[C@@H](N)Cc1c[nH]cn1)C(=O)N[C@@H](Cc1ccc(O)cc1)C(=O)N1CCC[C@H]1C(=O)N[C@H](C(=O)N[C@H](C(=O)N[C@@H](CCC(N)=O)C(=O)N1CCC[C@H]1C(=O)N[C@@H](CC(C)C)C(=O)O)[C@@H](C)O)C(C)C [Peptide 3] (H-HQIYPVTQPL-OH; N-terminus and C-terminus assumed),E. coli MIC,[1],>3000 µg/mL
same,B. infantis MIC,[2],>3000 µg/mL
same,S. aureus MIC,[3],>3000 µg/mL
HPHPHLSF,Function (known bioactive peptides in the infant intestinal samples),[4],ACE-inhibitory
QEPVLGPVRGPFPIIV,Function (known bioactive peptides in the infant intestinal samples),[4],ACE-inhibitory
PYVRYL,Function (known bioactive peptides in the infant intestinal samples),[4],ACE-inhibitory; also recorded: Antimicrobial; also recorded: Antioxidant
LPQNIPPLT,Function (known bioactive peptides in the infant intestinal samples),[4],DPP-IV-inhibitory
RELEELNVPGEIVESLSSSEESITR,Function (known bioactive peptides in the infant intestinal samples),[4],Caseinophosphopeptide; also recorded: Immunomodulatory
FQPQPLIYP,Function (known bioactive peptides in the infant intestinal samples),[4],ACE-inhibitory
DKIYPSFQPQPLIYP,Function (known bioactive peptides in the infant intestinal samples),[4],ACE-inhibitory
IGSENSEKTTMP,Function (known bioactive peptides in the infant intestinal samples),[4],ACE-inhib itory
VYPFPGPI,Function (known bioactive peptides in the infant intestinal samples),[4],PEP-inhibitory
CC(C)C[C@H](NC(=O)[C@H](CC(N)=O)NC(=O)[C@@H]1CCCN1C(=O)[C@@H](N)CCCNC(=N)N)C(=O)N[C@@H](Cc1c[nH]cn1)C(=O)N1CCC[C@H]1C(=O)N[C@@H](CO)C(=O)O [Peptide 7] (H-RPNLHPS-OH),E. coli MIC,[1],3000 µg/mL
same,B. infantis MIC,[2],>3000 µg/mL
same,S. aureus MIC,[3],3000 µg/mL
VLPVPQKAVPYPQR,Function (known bioactive peptides in the infant intestinal samples),[4],Antimicrobial
LYQEPVLGPVRGPFPIIV,Function (known bioactive peptides in the infant intestinal samples),[4],Immunomodulatory
NCCCC[C@H](NC(=O)CNC(=O)[C@H](Cc1ccccc1)NC(=O)[C@H](CCCCN)NC(=O)[C@@H](N)CCC(=O)O)C(=O)N[C@@H](CC(=O)O)C(=O)N[C@@H](CCCCN)C(=O)N[C@@H](CO)C(=O)N1CCC[C@H]1C(=O)N[C@@H](CCCCN)C(=O)N[C@@H](Cc1ccccc1)C(=O)N[C@@H](CCC(N)=O)C(=O)O [Peptide 8] (H-EKFGKDKSPKFQ-OH),E. coli MIC,[1],3000 µg/mL
same,B. infantis MIC,[2],>3000 µg/mL
same,S. aureus MIC,[3],3000 µg/mL
LLNQELLLNPTHQIYPV,Function (known bioactive peptides in the infant intestinal samples),[4],Antimicrobial
TEDELQDKIHPF,Function (known bioactive peptides in the infant intestinal samples),[4],Antimicrobial
CC[C@H](C)[C@H](NC(=O)[C@H](CCC(N)=O)NC(=O)[C@H](Cc1c[nH]cn1)NC(=O)[C@@H](NC(=O)[C@@H]1CCCN1C(=O)[C@H](CC(N)=O)NC(=O)[C@H](CC(C)C)NC(=O)[C@@H](N)CC(C)C)[C@@H](C)O)C(=O)N[C@@H](Cc1ccc(O)cc1)C(=O)N1CCC[C@H]1C(=O)N[C@H](C(=O)N[C@H](C(=O)N[C@@H](CCC(N)=O)C(=O)N1CCC[C@H]1C(=O)N[C@@H](CC(C)C)C(=O)N[C@@H](C)C(=O)N1CCC[C@H]1C(=O)N[C@H](C(=O)N[C@@H](Cc1c[nH]cn1)C(=O)N[C@@H](CC(N)=O)C(=O)N1CCC[C@H]1C(=O)N[C@H](C(=O)N[C@@H](CO)C(=O)O)[C@@H](C)CC)C(C)C)[C@@H](C)O)C(C)C [Peptide 2] (H-LLNPTHQIYPVTQPLAPVHNPIS-OH),E. coli MIC,[1],>3000 µg/mL
same,B. infantis MIC,[2],>3000 µg/mL
same,S. aureus MIC,[3],>3000 µg/mL
TKVIPYVRYL,Function (known bioactive peptides in the infant intestinal samples),[4],Antimicrobial
LKALPMH,Function (known bioactive peptides in the infant intestinal samples),[4],ACE-inhibitory; also recorded: DPP-IV-inhibitory
WSVPQPK,Function (known bioactive peptides in the infant intestinal samples),[4],ACE-inhibitory; also recorded: Antioxidant
